Test results: ChEMBL document CHEMBL3822385, “Antileishmanial activity of new thiophene-indole hybrids: Design, synthesis, biological and cytotoxic evaluation, and chemometric studies” (Bioorg Med Chem, 2016)
Values after ≈ are worked out from the molar mass of the structure shown. Active and inactive are the calls of the source. The calls are words filed in the database; no cut-off is given here.

Experiments:
[1] = system: Leishmania amazonensis; assay: Antileishmanial activity against Leishmania amazonensis IFLA/BR/67/PH8 promastigotes assessed as parasite growth inhibition incubated for 72 hrs using neubauer chamber by microscopic analysis; assay type: functional, organism-based; conditions: IFLA/BR/67/PH8, 72 h
[2] = Hemolytic activity in human O+ erythrocytes after 1 hr by spectrophotometry; assay type: ADME, cell-based, Erythrocyte; conditions: for HC50 at 1 h: human O+ erythrocytes
[3] = Selectivity index, ratio of HC50 for human O+ erythrocytes to IC50 for Leishmania amazonensis IFLA/BR/67/PH8 promastigotes
[4] = system: Leishmania amazonensis; assay: Antileishmanial activity against trivalent antimony-resistant Leishmania amazonensis IFLA/BR/67/PH8 promastigotes assessed as parasite growth inhibition incubated for 72 hrs using neubauer chamber by microscopic analysis; assay type: functional, organism-based; conditions: IFLA/BR/67/PH8, 72 h
[5] = system: Leishmania amazonensis; assay: Induction of genomic DNA fragmentation in Leishmania amazonensis IFLA/BR/67/PH8 promastigotes at 1 to 4 times antileishmanial IC50 after overnight incubation by GelRed staining based agarose gel electrophoresis; assay type: functional, organism-based

For `N#Cc1c(/N=C/c2c[nH]c3ccccc23)sc2c1CCC2`, the IC50 [1] was 48.9 µg/mL (≈ 168 µM), the HC50 at 1 h [2] was over 400 µg/mL and the “Selectivity Index” value [3] was over 8.2.

Compound “MEGLUMINE ANTIMONATE [listing 1 of 2 here]” has a Selectivity Index [3] of 0.02.

With `N#Cc1ccc2[nH]cc(/C=N/c3sc4c(c3C#N)CCC4)c2c1` the IC50 [1] was 7.4 µg/mL (≈ 23.4 µM), the HC50 at 1 h [2] was over 400 µg/mL and the “Selectivity Index” value [3] was over 53.7.

For `N#Cc1c(/N=C/c2c[nH]c3ccccc23)sc2c1CCCCC2`, the IC50 [1] was 3.2 µg/mL (≈ 10 µM), the HC50 at 1 h [2] was over 400 µg/mL and the “Selectivity Index” value [3] was over 124.6.

In the case of `COc1ccc2[nH]cc(/C=N/c3sc4c(c3C#N)CCCC4)c2c1`, the IC50 [1] is reported as 6 µg/mL (≈ 17.9 µM), the HC50 at 1 h [2] is reported as over 400 µg/mL and the “Selectivity Index” value [3] is reported as over 66.8.

For `N#Cc1c(/N=C/c2c[nH]c3cccc([N+](=O)[O-])c23)sc2c1CCCCC2`, the IC50 [1] was 1070 µg/mL (≈ 2930 µM), the HC50 at 1 h [2] was over 400 µg/mL and the “Selectivity Index” value [3] was over 0.3.

With `N#Cc1c(/N=C/c2c[nH]c3c2ccc2ccccc23)sc2c1CCCCCC2` the IC50 [1] was 9.4 µg/mL (≈ 24.5 µM), the HC50 at 1 h [2] was over 400 µg/mL and the “Selectivity Index” value [3] was over 42.6.

For `C[C@@H]1[C@H](O)[C@@H](C)/C=C/C=C/C=C/C=C/C=C/C=C/C=C/[C@H](O[C@@H]2O[C@H](C)[C@@H](O)[C@H](N)[C@@H]2O)C[C@@H]2O[C@](O)(C[C@@H](O)C[C@@H](O)[C@H](O)CC[C@@H](O)C[C@@H](O)CC(=O)O[C@H]1C)C[C@H](O)[C@H]2C(=O)O` [AMPHOTERICIN B], the IC50 [1] was 0.2 µg/mL (≈ 0.216 µM), the HC50 at 1 h [2] was 22.4 µg/mL and the “Selectivity Index” value [3] was 124.5.

For `Cc1ccc2[nH]cc(/C=N/c3sc4c(c3C#N)CCCCC4)c2c1`, the IC50 [1] was 6.1 µg/mL (≈ 18.3 µM), the HC50 at 1 h [2] was over 400 µg/mL and the “Selectivity Index” value [3] was over 65.6.

In the case of `N#Cc1c(/N=C/c2c[nH]c3c2ccc2ccccc23)sc2c1CCCCC2`, the IC50 [1] is reported as 18.7 µg/mL (≈ 50.6 µM), the HC50 at 1 h [2] is reported as over 400 µg/mL and the “Selectivity Index” value [3] is reported as over 21.4.

For `N#Cc1c(/N=C/c2c[nH]c3ncccc23)sc2c1CCCCC2`, the IC50 [1] was 8.7 µg/mL (≈ 27.2 µM), the HC50 at 1 h [2] was over 400 µg/mL and the “Selectivity Index” value [3] was over 45.8.

With `Cc1cccc2c(/C=N/c3sc4c(c3C#N)CCCCCC4)c[nH]c12` the IC50 [1] was 4.1 µg/mL (≈ 11.8 µM), the HC50 at 1 h [2] was over 400 µg/mL and the “Selectivity Index” value [3] was over 96.6.

In the case of `N#Cc1c(/N=C/c2c[nH]c3cccc([N+](=O)[O-])c23)sc2c1CCCCCC2`, the IC50 [1] is reported as 9.4 µg/mL (≈ 24.8 µM), the HC50 at 1 h [2] is reported as over 400 µg/mL and the “Selectivity Index” value [3] is reported as over 42.5.

In the case of `N#Cc1c(/N=C/c2c[nH]c3ccccc23)sc2c1CCCCCC2`, the IC50 [1] is reported as 5.4 µg/mL (≈ 16.2 µM), the HC50 at 1 h [2] is reported as over 400 µg/mL and the “Selectivity Index” value [3] is reported as over 73.2.

In the case of `N#Cc1ccc2[nH]cc(/C=N/c3sc4c(c3C#N)CCCC4)c2c1`, the IC50 [1] is reported as 4.7 µg/mL (≈ 14.2 µM), the HC50 at 1 h [2] is reported as over 400 µg/mL and the “Selectivity Index” value [3] is reported as over 84.7.

For `N#Cc1c(/N=C/c2c[nH]c3ncccc23)sc2c1CCC2`, the IC50 [1] was 289 µg/mL (≈ 988 µM), the HC50 at 1 h [2] was over 400 µg/mL and the “Selectivity Index” value [3] was over 1.4.

With `COc1ccc2[nH]cc(/C=N/c3sc4c(c3C#N)CCC4)c2c1` the IC50 [1] was 125 µg/mL (≈ 388 µM), the HC50 at 1 h [2] was over 400 µg/mL and the “Selectivity Index” value [3] was over 3.2.

For `Cc1cccc2c(/C=N/c3sc4c(c3C#N)CCCC4)c[nH]c12`, the IC50 [1] was 322 µg/mL (≈ 1010 µM), the HC50 at 1 h [2] was over 400 µg/mL and the “Selectivity Index” value [3] was over 1.2.

In the case of `N#Cc1c(/N=C/c2c[nH]c3ccccc23)sc2c1CCCC2`, the IC50 [1] is reported as 4.5 µg/mL (≈ 14.7 µM), the HC50 at 1 h [2] is reported as over 400 µg/mL and the “Selectivity Index” value [3] is reported as over 88.8.

For `N#Cc1c(/N=C/c2c[nH]c3ncccc23)sc2c1CCCC2`, the IC50 [1] was 228 µg/mL (≈ 744 µM), the HC50 at 1 h [2] was over 400 µg/mL and the “Selectivity Index” value [3] was over 1.7.

In the case of `Cc1ccc2[nH]cc(/C=N/c3sc4c(c3C#N)CCCC4)c2c1`, the IC50 [1] is reported as 2.3 µg/mL (≈ 7.2 µM), the HC50 at 1 h [2] is reported as over 400 µg/mL and the “Selectivity Index” value [3] is reported as over 172.4.

“MEGLUMINE ANTIMONATE [listing 2 of 2 here]” showed an HC50 ([2]; erythrocyte, 1 h) of 681.2 µg/mL.

Potassium antimonyl tartrate trihydrate gave a Selectivity Index [3] of 38.2.

With `N#Cc1ccc2[nH]cc(/C=N/c3sc4c(c3C#N)CCCCC4)c2c1` the IC50 [1] was 3.4 µg/mL (≈ 9.87 µM), the HC50 at 1 h [2] was over 400 µg/mL and the “Selectivity Index” value [3] was over 115.6.

For `Cc1ccc2[nH]cc(/C=N/c3sc4c(c3C#N)CCC4)c2c1`, the IC50 [1] was 7.1 µg/mL (≈ 23.2 µM), the HC50 at 1 h [2] was over 400 µg/mL and the “Selectivity Index” value [3] was over 56.6.

In the case of `N#Cc1c(/N=C/c2c[nH]c3cccc([N+](=O)[O-])c23)sc2c1CCCC2`, the IC50 [1] is reported as 299 µg/mL (≈ 853 µM), the HC50 at 1 h [2] is reported as over 400 µg/mL and the “Selectivity Index” value [3] is reported as over 1.3.

For `N#Cc1c(/N=C/c2c[nH]c3c2ccc2ccccc23)sc2c1CCC2`, the IC50 [1] was 7.9 µg/mL (≈ 23.1 µM), the HC50 at 1 h [2] was over 400 µg/mL and the “Selectivity Index” value [3] was over 50.7.

For `N#Cc1c(/N=C/c2c[nH]c3ncccc23)sc2c1CCCCCC2`, the IC50 [1] was 651 µg/mL (≈ 1950 µM), the HC50 at 1 h [2] was over 400 µg/mL and the “Selectivity Index” value [3] was over 0.6.

For `N#Cc1ccc2[nH]cc(/C=N/c3sc4c(c3C#N)CCCCCC4)c2c1`, the IC50 [1] was 2.1 µg/mL (≈ 5.86 µM), the HC50 at 1 h [2] was over 400 µg/mL and the “Selectivity Index” value [3] was over 193.2. For the same compound, the IC50 [4] was 2.8 µg/mL (≈ 7.81 µM) and the Activity [5] was “Active”.

Compound `Cc1cccc2c(/C=N/c3sc4c(c3C#N)CCC4)c[nH]c12` has an IC50 [1] of 91.6 µg/mL (≈ 300 µM).

`N#Cc1c(/N=C/c2c[nH]c3cccc([N+](=O)[O-])c23)sc2c1CCC2` gave an IC50 [1] of 171 µg/mL (≈ 509 µM).

For `Cc1ccc2[nH]cc(/C=N/c3sc4c(c3C#N)CCCCCC4)c2c1`, the IC50 [1] was 6.5 µg/mL (≈ 18.7 µM), the HC50 at 1 h [2] was over 400 µg/mL and the “Selectivity Index” value [3] was over 61.3.

For `COc1ccc2[nH]cc(/C=N/c3sc4c(c3C#N)CCCCC4)c2c1`, the IC50 [1] was 10.2 µg/mL (≈ 29.2 µM), the HC50 at 1 h [2] was over 400 µg/mL and the “Selectivity Index” value [3] was over 39.1.

With `Cc1cccc2c(/C=N/c3sc4c(c3C#N)CCCCC4)c[nH]c12` the IC50 [1] was 786 µg/mL (≈ 2360 µM), the HC50 at 1 h [2] was over 400 µg/mL and the “Selectivity Index” value [3] was over 0.5.

With `COc1ccc2[nH]cc(/C=N/c3sc4c(c3C#N)CCCCCC4)c2c1` the IC50 [1] was 6.4 µg/mL (≈ 17.6 µM), the HC50 at 1 h [2] was over 400 µg/mL and the “Selectivity Index” value [3] was over 62.7.

With `N#Cc1c(/N=C/c2c[nH]c3c2ccc2ccccc23)sc2c1CCCC2` the IC50 [1] was 29.7 µg/mL (≈ 83.6 µM), the HC50 at 1 h [2] was over 400 µg/mL and the “Selectivity Index” value [3] was over 13.5.
